From publication PMC9533862 (Antiviral Research, 2010)
“And” between values parts separate entries of the source, which are not always exact repeats. Equal values may be shown once. Read-outs that look alike come from different tables or passages of the source.

How the values were obtained:
[1] = system: vaccinia virus (strain Copenhagen); assay type: cell-based
[2] = system: vaccinia virus (strain Copenhagen); experiment: microbe, parasite or virus in culture; assay type: cell-based
[3] = in vitro; details: human, CC50, HeLa cell monolayers; 24 h incubation; WST-1
[4] = system: HeLa cells; details: HeLa cell monolayers; 24 h incubation; WST-1
[5] = system: vaccinia virus DNA replication; assay type: cell-based
[6] = system: Plasmodium vinckei petteri; details: mice; ref Adovelande and Schrevel, 1996; cited from earlier work
[7] = system: vaccinia virus gene transcription (D12, A1, A17); assay type: cell-based; details: 2 μM
[8] = system: myxoma virus; assay type: cell-based; details: HeLa cells, 2 μM, MOI 0.1
[9] = system: vaccinia virus (strain Copenhagen); assay type: cell-based; details: 0.2 μM
[10] = system: vaccinia virus Western Reserve (WR) strain; experiment: microbe, parasite or virus in culture; assay type: cell-based
[11] = system: vaccinia virus (strain Copenhagen); assay type: cell-based; details: 0.2 μM; remark: listed apart in the source
[12] = system: vaccinia virus protein expression (D12, G8, H3); assay type: cell-based; details: 2 μM
[13] = system: vaccinia virus; details: previously reported against vaccinia; ref Yang et al., 2005; cited from earlier work

Nc1ccn(C[C@@H](CO)OCP(=O)(O)O)c(=O)n1 [Cidofovir]
reduction in virus titres [1]: no effect on vaccinia replication | IC50 ([2]; Orthopoxvirus vaccinia, HeLa): ~110 µM | CC50 [3]: > 1000 µM

C/C=C/[C@H]1O[C@@](O)([C@@H](C)[C@H](O)[C@H](C)[C@H]2OC(=O)/C(OC)=C/C(C)=C/[C@@H](C)[C@@H](O)[C@@H](CC)[C@@H](O)[C@H](C)C/C(C)=C/C=C/[C@@H]2OC)C[C@@H](O[C@H]2C[C@@H](O)[C@H](OC(N)=O)[C@@H](C)O2)[C@@H]1C [Concanamycin A]
Selectivity index [2]: 7941 | IC50 ([2]; Orthopoxvirus vaccinia, HeLa): ~0.0017 µM | CC50 [3]: 13.5 ± 5.7 µM

C/C=C/[C@H]1O[C@@](O)([C@@H](C)[C@H](O)[C@H](C)[C@H]2OC(=O)/C(OC)=C/C(C)=C/[C@@H](C)[C@@H](O)[C@@H](C)[C@@H](O)[C@H](C)C/C(C)=C/C=C/[C@@H]2OC)C[C@@H](O[C@H]2C[C@@H](O)[C@H](OC(N)=O)[C@@H](C)O2)[C@@H]1C [Concanamycin B]
IC50 [2]: ~0.011 µM and 0.011 µM | CC50 [4]: 21.4 ± 0.6 µM

C/C=C/[C@H]1O[C@@](O)([C@@H](C)[C@H](O)[C@H](C)[C@H]2OC(=O)/C(OC)=C/C(C)=C/[C@@H](C)[C@@H](O)[C@@H](CC)[C@@H](O)[C@H](C)C/C(C)=C/C=C/[C@@H]2OC)C[C@@H](O[C@H]2C[C@@H](O)[C@H](O)[C@@H](C)O2)[C@@H]1C [Concanamycin C]
IC50 [2]: ~0.0028 µM and 0.0028 µM | CC50 [4]: 15.6 ± 3.2 µM

CC[C@@]1([C@@H]2O[C@@H]([C@H]3O[C@@](O)(CO)[C@H](C)C[C@@H]3C)C[C@@H]2C)CC[C@H]([C@]2(C)CC[C@]3(C[C@H](O)[C@@H](C)[C@@H]([C@@H](C)[C@@H](OC)[C@H](C)C(=O)O)O3)O2)O1 [Monensin]
reduction in virus titres [1]: approximately 20 fold | Selectivity index [2]: 1065 | IC50 ([2]; Orthopoxvirus vaccinia, HeLa): ~0.0216 µM | CC50 [3]: 23 ± 2.9 µM

CO[C@@H]1C[C@@H](C[C@H]2CC[C@H](C)[C@H]([C@@H](C)C(=O)O)O2)O[C@]2(O[C@](C)([C@H]3CC[C@@](C)([C@@H]4O[C@@H]([C@H]5O[C@@](O)(CO)[C@H](C)C[C@@H]5C)C[C@@H]4C)O3)C[C@H]2C)[C@@H]1C [Nigericin]
abundance of the A1 gene at 8 hpi (viral DNA replication) ([5]; 2 μM): no significant increase in the abundance of the A1 gene | dosages at which toxicity was observed [6]: above 10 mg kg^−1 | reduction of virus replication, compound added 4 hpi [1]: ~1600 fold | vaccinia replication after removal of compound at 1 hpi [1]: vaccinia replication approached the level of untreated controls | decrease in viral titres ([1]; 0.2 μM): ~10 fold | reduction of A1 (intermediate) transcript expression [7]: ~94% | reduction of A17 (late) transcript expression [7]: ~98% | reduction of D12 (early) transcript expression [7]: ~82% | reduction in virus titres [8]: 676 fold | decrease in viral titres [9]: ~10 fold | Selectivity index [10]: 421 (WR) | IC50 ([10]; Vaccinia virus Western Reserve, HeLa): ~0.0195 µM | decrease in viral titres [11]: ~10 fold | Selectivity index [2]: 1038 (Cop) | IC50 ([2]; Orthopoxvirus vaccinia, HeLa): ~0.0079 µM | D12 (early) protein expression [12]: partially inhibited | G8 (intermediate) protein expression [12]: very little G8 detected | H3 (late) protein expression [12]: unable to detect H3 protein

O=C(NN1C(=O)[C@@H]2[C@@H]3C=C[C@@H]([C@H]4C[C@@H]34)[C@@H]2C1=O)c1ccc(C(F)(F)F)cc1 [ST-246]
reduction in virus titres [1]: approximately 7.4 fold | IC50 ([2]; Orthopoxvirus vaccinia, HeLa): ~0.0094 µM | CC50 [3]: > 1000 µM | IC50 [13]: 0.01 µM

Nc1ccn([C@@H]2O[C@H](CO)[C@@H](O)[C@@H]2O)c(=O)n1 [araC, cytosine arabinoside]
abundance of the A1 gene at 8 hpi (viral DNA replication) ([5]; 50 μg/mL): no significant increase in the abundance of the A1 gene
